# Laboratory results taken from PubChem BioAssay (NCI).
# “And” between values parts separate entries of the source, which are not always exact repeats. Equal values may be shown once.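 Grown in 96-well plates, cells were treated for 48 hours with each compound at five concentrations. Insufficient inhibition: endpoint recorded as highest concentration tested. The concentration for 50% growth inhibition is given as GI50. Definition used: TGI = concentration required for complete inhibition of growth.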
# Assays:
# Assay in all cases: NCI tumour cell line growth inhibition, 48 h
# SK-MEL-28 melanoma = tested on: SK-MEL-28 melanoma
# SNB-75 CNS = tested on: SNB-75 CNS
# MCF7 breast = tested on: MCF7 breast
# HT29 colon = tested on: HT29 colon
# CCRF-CEM leukemia = tested on: CCRF-CEM leukemia
# NCI-H460 lung = tested on: NCI-H460 lung
# LOX IMVI melanoma = tested on: LOX IMVI melanoma
# M14 melanoma = tested on: M14 melanoma
# SK-MEL-2 melanoma = tested on: SK-MEL-2 melanoma
# ACHN renal = tested on: ACHN renal
Structure (SMILES),GI50 (SK-MEL-28 melanoma),TGI (SK-MEL-28 melanoma),TGI (SNB-75 CNS),GI50 (MCF7 breast),TGI (MCF7 breast),GI50 (HT29 colon),TGI (HT29 colon),GI50 (CCRF-CEM leukemia),TGI (CCRF-CEM leukemia),GI50 (NCI-H460 lung),TGI (NCI-H460 lung),GI50 (LOX IMVI melanoma),TGI (LOX IMVI melanoma),TGI (M14 melanoma),GI50 (SK-MEL-2 melanoma),TGI (SK-MEL-2 melanoma),GI50 (ACHN renal),TGI (ACHN renal),GI50 (SNB-75 CNS),GI50 (M14 melanoma)
COc1ccc2c(c1)c(CC(=O)[Se]C)c(C)n2C(=O)c1ccc(Cl)cc1,> 0.202 µM,> 0.588 µM,> 0.238 µM,> 0.35 µM,> 1 µM,> 0.223 µM,> 1 µM,> 0.391 µM,> 1 µM,> 0.304 µM,> 1 µM,> 0.203 µM,> 0.528 µM,> 0.34 µM,> 0.436 µM,> 0.794 µM,> 0.56 µM,> 1 µM,,
CC1=C(C(=O)Nc2ccc3n[nH]c(C)c3c2)C(c2ccc(C(F)(F)F)cc2)CC(=O)N1 (stereo unspecified),> 25 µM,> 25 µM,> 18.8 µM,> 17.3 µM,> 25 µM,> 25 µM,> 25 µM,11.8 µM,> 25 µM,16.5 µM,> 25 µM,12.8 µM,> 25 µM,> 25 µM,> 25 µM,> 25 µM,> 25 µM,> 25 µM,1.24 µM,> 25 µM
CN1CCN(C(=O)C(C)(C)c2ccc(C(=O)Nc3cn4cc(-c5ccncc5)ccc4n3)cc2)CC1,0.343 µM,6.47 µM,1.57 µM,0.282 µM,> 100 µM,0.358 µM,> 94.9 µM,0.28 µM,> 100 µM,0.303 µM,34.3 µM,0.215 µM,0.934 µM,22.8 µM,0.316 µM,1.62 µM,0.238 µM,1.48 µM,0.167 µM,0.389 µM
Cc1ccccc1OCC(O)CN1CCN(c2ccc(Cl)cc2)CC1 (stereo unspecified),18.7 µM,33.5 µM,31 µM,16.9 µM,31.5 µM,14.5 µM,29.2 µM,16.4 µM,44.1 µM,16.7 µM,34.1 µM,15.3 µM,31.3 µM,34.6 µM,18.7 µM,35 µM,18.8 µM,42.2 µM,15.4 µM,17 µM
COc1cc2nc(N3CCCC3)nc(NCc3ccccc3)c2cc1OC,1.75 µM,3.19 µM,5.38 µM,1.71 µM,4.21 µM,2.29 µM,7.29 µM,2.55 µM,8.07 µM,2.95 µM,8.73 µM,1.71 µM,3.36 µM,3.49 µM,2.26 µM,5.13 µM,1.89 µM,3.89 µM,1.69 µM,1.81 µM
COC1CC(O[C@H]2CC[C@@]3(C)[C@H](CC[C@@H]4[C@@H]3CC[C@]3(C)[C@@H](C5=CC(=O)OC5)[C@@H](OC(C)=O)C[C@]43O)C2)OC(C)C1O (stereo partly specified),< 0.01 µM,< 0.01 µM,< 0.01 µM,< 0.01 µM,< 0.0117 µM,< 0.01 µM,< 0.01 µM,< 0.01 µM,,< 0.01 µM,< 0.01 µM,< 0.01 µM,< 0.01 µM,< 0.0106 µM,< 0.01 µM,< 0.0105 µM,< 0.01 µM,< 0.01 µM,< 0.01 µM,< 0.01 µM
C=CCN=C(N/N=C/c1ccc([N+](=O)[O-])o1)NS(=O)(=O)c1cc(C(=O)Nc2ccc(Cl)cc2)c(Cl)cc1SC,25.9 µM,> 100 µM,> 100 µM,1.28 µM,> 100 µM,5.81 µM,> 100 µM,4.81 µM,> 100 µM,2.22 µM,> 35.2 µM,> 64.1 µM,> 100 µM,> 21.6 µM,,> 24.4 µM,3.55 µM,> 50.1 µM,> 100 µM,3.09 µM
C[C@H]1CC[C@@]2(NC1)O[C@H]1C[C@H]3[C@@H]4CC[C@H]5C[C@@H](O)CC[C@]5(C)[C@H]4CC[C@]3(C)[C@H]1[C@@H]2C,17.9 µM,50 µM,24.7 µM and > 100 µM,12.9 µM,36.8 µM and > 100 µM,9.75 µM,50 µM and > 100 µM,18.3 µM,50 µM and > 100 µM,11.9 µM,34.8 µM and > 100 µM,14.4 µM,41.8 µM and > 100 µM,50 µM and > 100 µM,10.7 µM,23.9 µM and > 100 µM,11.2 µM,21.9 µM and > 100 µM,10.9 µM,18.1 µM
Cc1c(C(=O)Nc2ccccc2)sc2ncn(Cc3cccc(Cl)c3)c(=O)c12,> 100 µM,> 100 µM,> 100 µM,10.6 µM,> 100 µM,78.4 µM,> 100 µM,22.1 µM,97.3 µM,> 100 µM,> 100 µM,57.3 µM,> 100 µM,> 100 µM,49.2 µM,> 100 µM,30.2 µM,> 100 µM,33.3 µM,43.6 µM
CN(C)CCN1C(=O)c2c(c3c4ccccc4n4c3c3c2c2ccccc2n3C2CC(O)C(O)C4(C)O2)C1=O (stereo unspecified),3.02 µM,10.4 µM,8.29 µM,0.58 µM,7.44 µM,1.04 µM,7.54 µM,1.59 µM,14.4 µM,0.232 µM,5.08 µM,0.448 µM,1.89 µM,7.47 µM,2.97 µM,9.2 µM,0.816 µM,3.37 µM,1.41 µM,1.71 µM
